Results reported in patent US5116748A, “Process for the production of L-alanine dehydrogenase from 78-3 FERM BP-2517” (Toyo Jozo Kabushiki Kaisha, priority 1988, dated 1992).
Read-outs that look alike come from different tables or passages of the source.

Tested on: L-alanine dehydrogenase from Sporolactobacillus sp. 78-3 (FERM BP-2517)
Assay: Km-Value of L-alanine dehydrogenase (reductive amination, decrease of NADH at 340 nm)
Format: biochemical
Details: purified enzyme
Protocol: Enzyme activity is measured by the following assay method:
The reaction mixture, 1 ml, in a 1 ml quartz cell is pre-incubated at 37° C. for 5 mins. Dilute enzyme solution, 0.02 ml with 50 mM triethanolamine buffer (pH 8.5) is added thereto and the mixture is stirred to initiate the reaction. Decrease of NADH is measured photometrically at 340 nm during the reaction. Enzyme activity is calculated by the following equation on the linear part of the curve: [formula] wherein T=reaction time (min.); X=dilution ratio.

NC(=O)C1=CN([C@@H]2O[C@H](COP(=O)(O)OP(=O)(O)OC[C@H]3O[C@@H](n4cnc5c(N)ncnc54)[C@H](O)[C@@H]3O)[C@@H](O)[C@H]2O)C=CC1 [NADH]
Km (coenzyme NADH, read-out: Km-Value (NADH)): 0.011 mM

N [NH4^+]
Km (substrate NH4+, read-out: Km-Value (NH4+)): 20 mM
